Test: Critical micelle concentration (CMC) by UV-visible spectrophotometer
Assay type: physicochemical
Settings: in methanol; absorbance at 283 nm; 0.001-0.09 mM range
Experimental: CMC of the synthesized resorcinarene based amphiphilic supramolecular macrocycle was investigated in methanol using UV-visible spectrophotometer. Amphiphile methanolic solutions in 0.001-0.09 mM range were read on UV-visible spectrophotometer, giving characteristic absorbance at 283 nm.

CCCCCCCCCCCCCCCCOc1ccc(C2c3cc(c(O)cc3O)C(c3ccc(OCCCCCCCCCCCCCCCC)cc3)c3cc(c(O)cc3O)C(c3ccc(OCCCCCCCCCCCCCCCC)cc3)c3cc(c(O)cc3O)C(c3ccc(OCCCCCCCCCCCCCCCC)cc3)c3cc2c(O)cc3O)cc1 (stereo not shown) [ASRM]
CMC: 0.04 mM

From patent US10751285B1, “Synthesis of C resorcinarene based novel amphiphilic supramolecular macrocycle as nano-scale drug loading system” (priority 2019, dated 2020)
